According to publication PMC12040169 (PLOS Biology, 2025):

Assay: in vitro
Conditions: human, hela cells, % viability

| SMILES | viability at 28.5 h, 10 µM |
| --- | --- |
| COc1cc(-c2nccnc2N2CCN(c3ccncc3)CC2)cc(OC)c1OC [CBK036847] | 92% |
| OCCN1CCN(c2ccc(/C=C/c3ccccc3)cn2)CC1 [CBK036849] | 89.2% |
| COc1ccc(-c2nc(NC(=O)C3CC3)cnc2-c2cccc(C(F)(F)F)c2)cc1 [CBK036852] | 98% |
| C(=C\c1cccc(N2CCN(CCN3CCCC3)CC2)n1)/c1ccccc1 [CBK036853] | 97.8% |
| COc1ccc(Nc2ccc(-c3ccsc3)cn2)c(C)c1 [CBK036855] | 109% |
| CCCCCOc1ccc(Nc2ccc(-c3cccc(Cl)c3Cl)cn2)cc1 [CBK036856] | 111% |
| CC(=O)Nc1cccc(-c2ccc(N3CCN(CCN(C)C)CC3)nc2)c1 [CBK036857] | 104% |
| OC(CNc1nccnc1-c1ccco1)COc1ccccc1 (stereo not shown) [CBK036862] | 96.7% |
| O=C(Cc1c[nH]c2ccccc12)Nc1cnc(-c2cccc(OC(F)(F)F)c2)c(-c2cccnc2)n1 [CBK036863] | 108% |
| C=CCNc1nccnc1-c1ccc(CO)cc1 [CBK036870] | 91.4% |
| C=CCNc1nccnc1-c1cc(OC)c(OC)c(OC)c1 [CBK036872] | 102% |
| Fc1ccc(-c2cccc(N3CCN(c4ccccn4)CC3)n2)cc1Cl [CBK036877] | 104% |
| O=C(Nc1cnc(-c2cccc(C(F)(F)F)c2)c(-c2cccnc2)n1)c1cc(-c2ccco2)n[nH]1 [CBK036878] | 104% |
| CN1CCC(C(=O)Nc2cnc(-c3cccc(OC(F)(F)F)c3)c(-c3cccnc3)n2)CC1 [CBK036882] | 108% |
| CN(C)c1cccc(Nc2ccc(-c3ccco3)cn2)c1 [CBK036885] | 96.8% |
| CCCC/C=C/c1ccc(Nc2ccc(N3CCOCC3)cc2)nc1 [CBK036886] | 88.7% |
| O=C(c1ccc(-c2nccnc2NCCc2c[nH]c3ccccc23)cc1)N1CCOCC1 [CBK036891] | 95.6% |
| CCCNc1nccnc1-c1ccc(C(=O)N2CCN(C)CC2)cc1 [CBK036892] | 110% |
| O=C(COc1ccccc1[N+](=O)[O-])Nc1cnc(-c2cccc(C(F)(F)F)c2)c(-c2ccco2)n1 [CBK036899] | 86.3% |
| CN(C)c1ccc(-c2nccnc2NCc2ccc(S(C)(=O)=O)cc2)cc1 [CBK036902] | 104% |
| COc1ccc(C(C)C)cc1-c1nccnc1NCc1ccc(S(C)(=O)=O)cc1 [CBK036903] | 92.5% |
| CCOc1cccc(-c2ccc(N(C)CCN(C)C)nc2)c1 [CBK036904] | 94.8% |

| SMILES | viability at 28.5 h, 10 µM |
| --- | --- |
| CN(C)CCN1CCN(c2ccc(-c3ccsc3)cn2)CC1 [CBK036915] | 96.2% |
| CN1CCN(c2cccc(-c3ccsc3)n2)CC1 [CBK036916] | 90.2% |
| Cc1cc(-c2nccnc2NCc2ccccn2)cc(C)c1O [CBK036921] | 94.2% |
| C=CCNc1nccnc1-c1cnc(OC)nc1OC [CBK036922] | 91.7% |
| COc1ncc(-c2nccnc2N[C@@H]2CCN(Cc3ccccc3)C2)c(OC)n1 [CBK036926] | 101% |
| COc1ccc(C(C)C)cc1-c1nccnc1NCC1COC(C)(C)O1 (stereo not shown) [CBK036930] | 101% |
| O=C(c1ccc(-c2nccnc2NCc2ccc(C(F)(F)F)cc2)cc1)N1CCOCC1 [CBK036931] | 100% |
| COc1ncc(-c2ccc(NCC(C)C)nc2)c(OC)n1 [CBK036934] | 116% |
| COc1cc(-c2nccnc2NCc2ccccn2)cc(OC)c1OC [CBK036936] | 96.8% |
| COCCC(=O)Nc1cnc(-c2ccc(F)c(Cl)c2)c(-c2cccnc2)n1 [CBK036938] | 95.2% |
| OCCN1CCN(c2ccc(-c3cc(C(F)(F)F)cc(C(F)(F)F)c3)cn2)CC1 [CBK036941] | 99% |
| COc1ccc(Nc2cccc(-c3ccc(CCC(=O)O)cc3)n2)cc1 [CBK036943] | 106% |
| CN1CCN(c2ccc(-c3ccc(Cl)cc3)cn2)CC1 [CBK036945] | 95.2% |
| CCCCCOc1ccc(Nc2ccc(-c3cccnc3)cn2)cc1 [CBK036948] | 109% |
| O=C1CCC(C(=O)Nc2cnc(-c3cccc(C(F)(F)F)c3)c(-c3cccnc3)n2)=NN1 [CBK036950] | 88.3% |
| CCN(CC)CCN1CCN(c2cc(-c3cccnc3)ncn2)CC1 [CBK036957] | 94.8% |
| O=c1[nH]ccn1CCNc1cc(-c2ccccc2Oc2ccccc2)ncn1 [CBK036966] | 90.4% |
| O=C(CCOc1ccccc1)Nc1cnc(-c2ccc(F)cc2)c(-c2ccco2)n1 [CBK036967] | 93.1% |
| CC(=O)c1ccc(-c2nccnc2NCC(O)COc2ccccc2)s1 (stereo not shown) [CBK036976] | 107% |
| CS(=O)(=O)c1ccc(-c2nccnc2NCc2cccnc2)cc1 [CBK036977] | 104% |
| CN(C)CCN(C)c1ccc(-c2ccc(F)c(Cl)c2)cn1 [CBK036979] | 96.8% |
| COc1ncc(-c2ccc(Nc3ccc(N4CCOCC4)cc3)nc2)c(OC)n1 [CBK036988] | 95% |

| SMILES | viability at 28.5 h, 10 µM |
| --- | --- |
| COc1ccc(-c2nc(NC(=O)COc3ccc(C)c4c3CCC4)cnc2-c2ccc(F)cc2)cc1 [CBK036990] | 88.7% |
| COc1ccc(C(=O)OC(C)(C)C)c(-c2nccnc2N[C@@H](C)c2ccccc2)c1 [CBK036994] | 94.2% |
| Cc1c(O)cccc1Nc1cc(-c2cccc(N(C)C)c2)ncn1 [CBK036995] | 94.3% |
| NS(=O)(=O)c1ccc(C(=O)Nc2cnc(-c3ccc(F)cc3)c(-c3ccsc3)n2)cc1 [CBK036998] | 98.8% |
| COc1ccc(-c2nc(NC(=O)C3CCC(OC)CC3)cnc2-c2ccc(F)cc2)cc1 (stereo not shown) [CBK037004] | 88.4% |
| Clc1cc(Nc2ccc3[nH]ccc3c2)n2nccc2n1 [CBK037009] | 84.7% |
| OC(CNc1nccnc1-c1cccc(C(F)(F)F)c1)COc1ccccc1 (stereo not shown) [CBK037010] | 89.9% |
| OCC1CCCN1c1cc(Cl)nc2ccnn12 (stereo not shown) [CBK037011] | 95.7% |
| CC(C)[C@H](CO)Nc1nccnc1-c1ccc(C(=O)N2CCOCC2)cc1 [CBK037012] | 97.7% |
| CN1CCN(c2cc(-c3cccc4cccnc34)nc3ccnn23)CC1 [CBK037013] | 90.8% |
| Oc1cccc(-c2nccnc2NCc2cccc(C(F)(F)F)c2)c1 [CBK037014] | 86.9% |
| CN(C)CCN(C)c1cccc(-c2cccc(OC(F)(F)F)c2)n1 [CBK037020] | 102% |
| COc1cc(C)c(Nc2cccc(-c3ccsc3)n2)cc1OC [CBK037025] | 104% |
| CN(C)CCN(C)c1ccc(/C=C/c2ccccc2)cn1 [CBK037026] | 98.4% |
| COc1ccc(CNc2cc(-c3cccc(Cl)c3)nc3ccnn23)cc1 [CBK037037] | 95.8% |
| CN(C)c1ccccc1-c1cc(NC2CCCCC2)ncn1 [CBK037041] | 105% |
| OCc1ccc(-c2cc(NCc3cccs3)n3nccc3n2)cc1 [CBK037046] | 106% |
| CN(C)CCN1CCN(c2nccnc2-c2cccc(CO)c2)CC1 [CBK037047] | 94.7% |
| CN1CCN(C(=O)c2cccc(-c3nccnc3NCc3cccc(Cl)c3)c2)CC1 [CBK037048] | 108% |
| Nc1cccc(-c2cc(N3CCCC3CO)n3nccc3n2)c1 (stereo not shown) [CBK037049] | 88.6% |
